Literature values, collected in patent publication US20230218541A1, “Enhanced Moisturizing Lotion Compositions” (priority 2019, published 2023).

Test system: coronaviruses, including SARS-CoV-2, SARS-CoV, MERS-CoV, and HCoVs
Conditions: 62% to 71% ethanol, 0.5% hydrogen peroxide or 0.1% sodium hypochlorite

| Structure (SMILES) | Time to efficient inactivation of coronaviruses on contact with surface disinfectant |
| --- | --- |
| OO [hydrogen peroxide] | one |
| OCl [sodium hypochlorite] | one |
| CCO [ethanol] | one |
